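Results reflect a 48-hour exposure of cells in 96-well plates to compound at five concentrations. GI50 marks 50% less growth. TGI: total growth inhibition.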 Where a SMILES comes first, the peptide text is derived from it. The star is where a group is joined. Fmoc = O=C(OCC1c2ccccc2-c2ccccc21)*; OBn = c1ccc(CO*)cc1; tBu = CC(C)(C)*
Legend:
Test in all cases: NCI tumour cell line growth inhibition, 48 h
[1] = tested on: HS 578T breast
[2] = tested on: OVCAR-8 ovarian
[3] = tested on: M14 melanoma
[4] = tested on: MOLT-4 leukemia
[5] = tested on: SK-MEL-5 melanoma
[6] = tested on: K-562 leukemia
[7] = tested on: EKVX NSCLC
[8] = tested on: SNB-75 CNS
[9] = tested on: MALME-3M melanoma
[10] = tested on: UACC-257 melanoma

Row | SMILES | TGI [1] [µM] | TGI [2] [µM] | TGI [3] [µM] | TGI [4] [µM] | TGI [5] [µM] | TGI [6] [µM] | TGI [7] [µM] | TGI [8] [µM] | TGI [9] [µM] | TGI [10] [µM] | GI50 [1] [µM] | GI50 [2] [µM] | GI50 [3] [µM] | GI50 [4] [µM] | GI50 [5] [µM] | GI50 [6] [µM] | GI50 [7] [µM] | GI50 [8] [µM] | GI50 [9] [µM] | GI50 [10] [µM]
1 | CC(C)NC(=O)OCCN=C1c2ccccc2C(Br)C(Br)c2ccccc21 (stereo not given) | 31.4 | 24.8 | 16.2 | 14.9 | 21.1 | 3.62 | 59.2 | 39.8 | 17.2 | 35.8 | – | – | – | – | – | – | – | – | – | –
2 | COc1cc2c(cc1OCCN1CCN(CCOc3cc4c(cc3OC)C(=O)N3CCC[C@H]3C=N4)CC1)N=C[C@@H]1CCCN1C2=O | > 100 | > 100 | > 83.6 | 6.78 | 48.9 | > 60.5 | > 100 | > 100 | 38.4 | > 100 | – | – | – | – | – | – | – | – | – | –
3 | CN(C)c1ccc(/C=C2\N=C(c3ccccc3)N(c3nc4ccc(Sc5ccccc5)cc4[nH]3)C2=O)cc1 | > 100 | > 100 | > 100 | > 100 | > 100 | 96.6 | > 100 | > 100 | > 100 | 90.9 | – | – | – | – | – | – | – | – | – | –
4 | CC(OC(C)(C)C)C(NC(=O)OCC1c2ccccc2-c2ccccc21)C(=O)NC(Cc1ccccc1)C(=O)OCc1ccccc1 (stereo not given) (Fmoc-Thr(tBu)-Phe-OBn; configuration not given here) | > 100 | > 100 | > 100 | > 100 | > 100 | > 100 | > 100 | > 100 | > 100 | > 100 | – | – | – | – | – | – | – | – | – | –
5 | Cc1c(-c2ccccc2)oc(=O)c2ccccc12 | 43.1 | 93 | 51.2 | 60.1 | 33.8 | > 100 | 60.9 | 31.1 | 52.8 | 30.7 | – | – | – | – | – | – | – | – | – | –
6 | C[N+](C)([O-])C12CC3CC(CC(C3)C1)C2 | > 100 | > 100 | > 100 | > 100 | > 100 | > 100 | 74.3 | > 100 | > 100 | > 100 | – | – | – | – | – | – | – | – | – | –
7 | O=c1ccc(=O)c2c1c1[nH]c3ccccc3c1c1c(=O)c3ccccc3c(=O)c21 | > 10 | > 10 | > 10 | 7.55 | > 10 | > 10 | > 10 | > 10 | > 10 | > 10 | – | – | – | – | – | – | – | – | – | –
8 | CCOC(=O)NC(Nc1ccc(C(=O)O)cc1)(C(F)(F)F)C(F)(F)F | > 100 | > 100 | > 100 | > 100 | > 100 | > 100 | > 100 | > 100 | > 100 | > 100 | – | – | – | – | – | – | – | – | – | –
9 | COc1cc2ccc(C(C)NCC#N)cc2cc1OC (stereo not given) | > 100 | > 100 | > 100 | > 100 | > 100 | > 100 | > 100 | > 100 | > 100 | > 100 | – | – | – | – | – | – | – | – | – | –
10 | CC[P+](c1ccccc1)(N(C)C)N(C)C | > 100 | > 100 | > 100 | > 100 | > 100 | > 100 | > 100 | > 100 | > 100 | > 100 | – | – | – | – | – | – | – | – | – | –
11 | COc1ccc(C2CC(c3cccc(Nc4ccncc4)c3)=NN2c2ccccc2)cc1 (stereo not given) | 3.87 | 4.77 | 3.74 | 4.63 | 3.28 | 5.05 | 10.2 | 5.23 | 3.08 | 4.17 | 1.82 | 2.19 | 1.87 | 2.07 | 1.8 | 2 | 2.73 | 1.55 | 1.62 | 2
12 | C=C(CCC(=O)N(CCc1c[nH]c2ccccc12)C(=O)c1ccccc1CSCC)C(=O)OC | > 100 | > 100 | > 100 | > 100 | > 100 | > 100 | > 100 | > 100 | > 100 | > 100 | – | – | – | – | – | – | – | – | – | –
13 | COc1cc(COC(=O)N(C)[C@@H](Cc2ccccc2)C(=O)O)c([N+](=O)[O-])cc1OC | > 100 | > 100 | > 100 | > 100 | > 100 | > 100 | > 100 | > 100 | > 100 | > 100 | – | – | – | – | – | – | – | – | – | –
14 | CN(CC(=O)O)c1ncc2c(n1)-c1ccccc1CC2 | > 100 | > 100 | > 100 | > 100 | > 100 | > 100 | > 100 | > 100 | > 100 | > 100 | – | – | – | – | – | – | – | – | – | –
15 | Nc1ncnc2c1ncn2CCCNO | > 100 | > 100 | > 100 | > 100 | > 100 | > 100 | > 100 | > 100 | > 100 | > 100 | – | – | – | – | – | – | – | – | – | –
16 | Cc1c(C)c2c(c(N)c1C#N)C(=O)N(NC(=S)Nc1ccccc1)C2=O | > 100 | > 100 | > 100 | > 100 | > 100 | > 100 | > 100 | > 100 | > 100 | > 100 | – | – | – | – | – | – | – | – | – | –
17 | O=C(O)C1C2OC(C(Br)C2Br)C1C(=O)O (stereo not given) | > 100 | > 100 | > 100 | > 100 | > 100 | > 100 | > 100 | > 100 | > 100 | > 100 | – | – | – | – | – | – | – | – | – | –
18 | Fc1nc(Sc2ncnc3nc[nH]c23)nc(-c2c3ccccc3c3sc4ccccc4n23)n1 | > 100 | > 100 | > 100 | > 100 | > 100 | > 100 | > 100 | > 100 | > 100 | > 100 | – | – | – | – | – | – | – | – | – | –
19 | O=C(Nc1nnc(-c2ccccc2)o1)C(SC(=S)N1CCCC1)c1ccccc1 (stereo not given) | > 100 | > 100 | > 100 | > 100 | 38.2 | > 100 | 68 | > 100 | > 100 | > 100 | – | – | – | – | – | – | – | – | – | –
20 | CC(CSc1nc2c(c(=N)n1-c1ccccc1)c(=S)n(-c1ccccc1)c(=S)n2-c1ccccc1)CN(C)C (stereo not given) | > 28.7 | 3 | 3.56 | 3.02 | 4.42 | 3.14 | 3.12 | 3.41 | 3.23 | 3.43 | – | – | – | – | – | – | – | – | – | –
21 | Fc1cccc(C2ON=C(c3ccccc3)N2C23CC4CC(CC(C4)C2)C3)c1 (stereo not given) | > 10 | > 10 | > 10 | > 10 | > 10 | > 10 | > 10 | > 10 | > 10 | > 10 | – | – | – | – | – | – | – | – | – | –
22 | CC(C)(C)c1cc(C(C)(C)C)c2sc(=O)oc2c1O | 31.4 | 31.2 | 31.6 | > 100 | 27.9 | 30.4 | 29.2 | 27.1 | 30.2 | 20.2 | – | – | – | – | – | – | – | – | – | –
23 | COc1cc2c(cc1OC)C(C1CC1)ON(C)CC2 (stereo not given) | > 100 | > 100 | > 100 | > 100 | > 100 | > 100 | > 100 | > 100 | > 100 | > 100 | – | – | – | – | – | – | – | – | – | –
24 | Clc1ccc(-c2nn3c(COc4ccc(OCc5nnc6sc(-c7ccc(Cl)cc7)nn56)c(Cl)c4)nnc3s2)cc1 | > 100 | 75 | > 100 | > 100 | 80.2 | > 100 | > 100 | 29.8 | > 100 | > 100 | – | – | – | – | – | – | – | – | – | –
25 | CN(Cc1ccccc1)C(=S)S | > 100 | > 100 | 72.6 | 84.6 | > 100 | > 100 | > 100 | > 100 | > 100 | > 100 | – | – | – | – | – | – | – | – | – | –
26 | CCOC(=O)C(NC(=O)c1ccccc1)(Nc1ccc(S(=O)(=O)Nc2cc(C)on2)cc1)C(F)(F)F (stereo not given) | > 100 | > 100 | > 100 | > 100 | > 100 | > 100 | > 100 | > 100 | > 100 | > 10 | – | – | – | – | – | – | – | – | – | –
27 | CN(C)CCCNC(=O)N/N=C/c1ccccn1 | > 10 | > 10 | > 10 | > 10 | > 10 | > 10 | > 10 | > 10 | > 10 | > 10 | – | – | – | – | – | – | – | – | – | –
28 | CCCCCCCC(=O)OC[n+]1cccc(-c2c(COC(=O)NC(C)C)c(COC(=O)NC(C)C)c3n2CCC3)c1 | > 100 | > 100 | > 100 | 99.4 | > 100 | > 100 | > 100 | > 100 | > 100 | > 100 | – | – | – | – | – | – | – | – | – | –
29 | CCOC1OC(C)(C=C(C#N)C#N)CCC1C (stereo not given) | > 89.1 | > 68 | > 100 | > 100 | > 100 | 56.8 | > 100 | > 100 | > 100 | > 100 | – | – | – | – | – | – | – | – | – | –

Reference: PubChem BioAssay (NCI)
